# Measured values reported in patent US11440884B2, “Compounds, salts thereof and methods for treatment of diseases” (ACADIA PHARMACEUTICALS INC., priority 2017, dated 2022).
# Biological target: 5-HT2A receptor (Homo sapiens (Human), UniProt P28223)
# Assay: Receptor Selection and Amplification (R-SAT) functional antagonist assay;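 note: Read-out is β-galactosidase marker gene activity with ONPG substrate, measured after five days of growth in 96-well plates holding the test compound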
# Settings: not given
# Chain of 5-HT2A receptor (P28223 whole entry): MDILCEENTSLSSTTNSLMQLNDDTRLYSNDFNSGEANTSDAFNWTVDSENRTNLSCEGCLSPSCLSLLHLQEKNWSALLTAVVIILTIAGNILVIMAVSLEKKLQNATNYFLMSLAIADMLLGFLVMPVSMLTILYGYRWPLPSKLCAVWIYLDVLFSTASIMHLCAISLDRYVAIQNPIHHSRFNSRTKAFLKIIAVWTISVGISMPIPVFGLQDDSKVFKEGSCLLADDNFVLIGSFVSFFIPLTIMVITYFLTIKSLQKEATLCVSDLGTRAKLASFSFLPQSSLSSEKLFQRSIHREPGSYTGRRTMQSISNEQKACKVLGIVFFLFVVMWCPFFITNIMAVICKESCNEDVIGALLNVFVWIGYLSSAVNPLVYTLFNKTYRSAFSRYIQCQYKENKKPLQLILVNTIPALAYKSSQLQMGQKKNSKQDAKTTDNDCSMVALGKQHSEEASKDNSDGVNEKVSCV
Ki,SMILES,5-HT2a pKi
0.1 nM,"CC(C)Oc1ccc(COC(=O)N(Cc2ccc(F)cc2)[C@H]2CCNC[C@H]2F)cc1 (racemic) [3a/3b, [4-(propan-2-yloxy)phenyl]methyl N-[(4-fluorophenyl)methyl]-N-[(3R,4S)-3-fluoropiperidin-4-yl]carbamate (3a) and [4-(propan-2-yloxy)phenyl]methyl N-[(4-fluorophenyl)methyl]-N-[(3S,4R)-3-fluoropiperidin-4-yl]carbamate (3b)]",–
0.1 nM,"CC(C)Oc1ccc(COC(=O)N(Cc2ccc(F)cc2)[C@H]2CCN(C)C[C@H]2F)cc1 (racemic) [4a/4b, [4-(propan-2-yloxy)phenyl]methyl N-[(3R,4S)-3-fluoro-1-methylpiperidin-4-yl]-N-[(4-fluorophenyl)methyl]carbamate (4a) and [4-(propan-2-yloxy)phenyl]methyl N-[(3S,4R)-3-fluoro-1-methylpiperidin-4-yl]-N-[(4-fluorophenyl)methyl]carbamate (4b)]",–
0.251 nM,"CC(C)COc1ccc(COC(=O)N(Cc2ccc(F)cc2)[C@H]2CCNC[C@H]2F)cc1 (racemic) [5a/5b, [4-(2-methylpropoxy)phenyl]methyl N-[(4-fluorophenyl)methyl]-N-[(3R,4S)-3-fluoropiperidin-4-yl]carbamate (5a) and [4-(2-methylpropoxy)phenyl]methyl N-[(4-fluorophenyl)methyl]-N-[(3S,4R)-3-fluoropiperidin-4-yl]carbamate (5b)]",–
0.251 nM,"CC(C)COc1ccc(COC(=O)N(Cc2ccc(F)cc2)[C@H]2CCN(C)C[C@H]2F)cc1 (racemic) [6a/6b, [4-(2-methylpropoxy)phenyl]methyl N-[(3R,4S)-3-fluoro-1-methylpiperidin-4-yl]-N-[(4-fluorophenyl)methyl]carbamate (6a) and [4-(2-methylpropoxy)phenyl]methyl N-[(3S,4R)-3-fluoro-1-methylpiperidin-4-yl]-N-[(4-fluorophenyl)methyl]carbamate (6b)]",–
63.1 nM,"CC(C)COc1ccc(CCOC(=O)N(Cc2ccc(F)cc2)[C@H]2CCNC[C@H]2F)cc1 (racemic) [9a/9b, 2-[4-(2-methylpropoxy)phenyl]ethyl N-[(4-fluorophenyl)methyl]-N-[(3R,4S)-3-fluoropiperidin-4-yl]carbamate; trifluoroacetic acid (9a) and 2-[4-(2-methylpropoxy)phenyl]ethyl N-[(4-fluorophenyl)methyl]-N-[(3S,4R)-3-fluoropiperidin-4-yl]carbamate; trifluoroacetic acid (9b)]",–
15.8 nM,"CC(C)COc1ccc(CCOC(=O)N(Cc2ccc(F)cc2)[C@H]2CCN(C)C[C@H]2F)cc1 (racemic) [10a/10b, 2-[4-(2-methylpropoxy)phenyl]ethyl N-[(3R,4S)-3-fluoro-1-methylpiperidin-4-yl]-N-[(4-fluorophenyl)methyl]carbamate (10a) and 2-[4-(2-methyl-propoxy)phenyl]ethyl N-[(3S,4R)-3-fluoro-1-methylpiperidin-4-yl]-N-[(4-fluorophenyl)-methyl]carbamate (10b)]",–
–,"CC(C)Oc1ccc(COC(=O)N(Cc2ccc(F)cc2F)C2CCNCC2)cc1.O=C(O)C(F)(F)F [Compound 11, [4-(propan-2-yloxy)phenyl]methyl N-[(2,4-difluorophenyl)methyl]-N-(piperidin-4-yl)carbamate]",9.6
0.0158 nM,"CC(C)Oc1ccc(COC(=O)N(Cc2ccc(F)cc2)[C@H]2CCN3CCC[C@H]3C2)cc1 [Compound 18, [4-(propan-2-yloxy)phenyl]methyl N-[(7S,8aS)-octahydroindolizin-7-yl]-N-[(4-fluorophenyl)methyl]carbamate]",–
–,"CCOc1ccc(CC(=O)N(Cc2ccc(F)cc2F)C2CCN(C)CC2)cc1.O=C(O)C(F)(F)F [Compound 23, N-(2,4-difluorobenzyl)-2-(4-ethoxyphenyl)-N-(1-methylpiperidin-4-yl)acetamide; trifluoroacetic acid]",7.8
–,"CCCCOc1ccc(CC(=O)N(Cc2ccc(F)cc2F)C2CCN(C)CC2)cc1.O=C(O)C(F)(F)F [Compound 24, N-(2,4-difluorobenzyl)-2-(4-butoxyphenyl)-N-(1-methylpiperidin-4-yl)acetamide trifluoroacetic acid]",7.2
–,"CN1CCC(N(Cc2ccc(F)cc2F)C(=O)OCc2ccc(OCCCF)cc2)CC1.O=C(O)C(F)(F)F [Compound 27, 4-(3-fluoropropoxy)benzyl (2,4-difluorobenzyl)(1-methylpiperidin-4-yl)carbamate; trifluoroacetic acid]",9.8
–,"CN1CCC(N(Cc2ccc(F)cc2F)C(=O)OCc2ccc(OC(CF)CF)cc2)CC1.O=C(O)C(F)(F)F [Compound 28, 4-((1,3-difluoropropan-2-yl)oxy)benzyl (2,4-difluorobenzyl)(1-methylpiperidin-4-yl)carbamate; trifluoroacetic acid]",10.1
–,"CC(C)COc1ccc(CC(=O)N(Cc2ccc(Cl)cc2F)C2CCN(C)CC2)cc1.O=C(O)C(F)(F)F [Compound 31, N-[(4-chloro-2-fluorophenyl)methyl]-N-(1-methylpiperidin-4-yl)-2-[4-(2-methylpropoxy)phenyl]acetamide; trifluoroacetic acid]",7.3
–,"COc1cc(F)c(CN(C(=O)Cc2ccc(OCC(C)C)cc2)C2CCN(C)CC2)c(F)c1.O=C(O)C(F)(F)F [Compound 33, N-[(2,6-difluoro-4-methoxyphenyl)methyl]-N-(1-methylpiperidin-4-yl)-2-[4-(2-methylpropoxy)phenyl]acetamide; trifluoroacetic acid]",7.5

# Same assay, conditions: R-SAT, transfected NIH3T3 cells; guidance: high affinity pKi≥8.4, moderate affinity pKi≥7.7
row,SMILES,5-HT2a pKi
1,"CC(C)Oc1ccc(C(OC(=O)N(Cc2ccc(F)cc2)C2CCN(C)CC2)C(F)(F)F)cc1 (stereo not drawn) [Compound 17, 2,2,2-trifluoro-1-[4-(propan-2-yloxy)phenyl]ethyl N-[(4-fluorophenyl)methyl]-N-(1-methylpiperidin-4-yl)carbamate]",7.5
2,"CC(C)Oc1ccc(CC(=O)N(Cc2ccc(F)cc2F)C2CCN(C)CC2)cc1.O=C(O)C(F)(F)F [Compound 19, N-[(2,4-difluorophenyl)methyl]-N-(1-methylpiperidin-4-yl)-2-[4-(propan-2-yloxy)phenyl]acetamide; trifluoroacetic acid]",8.3
3,"CC(C)COc1ccc(CC(=O)N(Cc2ccc(F)cc2)C2CCN(C)CC2)c(F)c1.O=C(O)C(F)(F)F [Compound 20, 2-[2-fluoro-4-(2-methylpropoxy)phenyl]-N-[(4-fluorophenyl)methyl]-N-(1-methylpiperidin-4-yl)acetamide; trifluoroacetic acid]",8.2
4,"CC(C)COc1ccc(CC(=O)N(Cc2ccc(F)cc2)C2CCN(C)CC2)cc1F.O=C(O)C(F)(F)F [Compound 21, 2-[3-fluoro-4-(2-methylpropoxy)phenyl]-N-[(4-fluorophenyl)methyl]-N-(1-methylpiperidin-4-yl)acetamide; trifluoroacetic acid]",8.6
5,"CC(C)COc1ccc(CC(=O)N(Cc2ccc(F)cc2F)C2CCN(C)CC2)cc1.O=C(O)C(F)(F)F [Compound 22, N-(2,4-difluorobenzyl)-2-(4-isobutoxyphenyl)-N-(1-methylpiperidin-4-yl)acetamide; trifluoroacetic acid]",8.2

# Next, values leading:
row,5-HT2a pKi,SMILES
1,9.7,"CC(C)Oc1ccc(COC(=O)N(Cc2ccc(Cl)cc2)C2CCN(C)CC2)cc1 [Compound 1, [4-(propan-2-yloxy)phenyl]methyl N-[(4-chlorophenyl)methyl]-N-(1-methylpiperidin-4-yl)carbamate]"
2,9.9,"CC(C)COc1ccc(COC(=O)N(Cc2ccc(F)cc2)C2CCN(C)CC2)cc1 [Compound 2, [4-(2-methylpropoxy)phenyl]methyl N-[(4-fluorophenyl)methyl]-N-(1-methylpiperidin-4-yl)carbamate]"
3,9.6,"CC(C)Oc1ccc(COC(=O)N(Cc2ccc(F)cc2)C2CCN(C)CC2)cc1 [Compound 12, [4-(propan-2-yloxy)phenyl]methyl N-[(4-fluorophenyl)methyl]-N-(1-methylpiperidin-4-yl)carbamate]"
4,9.9,"CC(C)Oc1ccc(COC(=O)N(Cc2ccc(F)cc2F)C2CCN(C)CC2)cc1 [Compound 13, [4-(propan-2-yloxy)phenyl]methyl N-[(2,4-difluorophenyl)methyl]-N-(1-methylpiperidin-4-yl)carbamate]"
5,7.6,"CC(C)COc1ccc(COC(=O)N(Cc2ccc(F)cc2F)C2CCN(C)CC2)cc1 [Compound 14, [4-(2-methylpropoxy)phenyl]methyl N-[(2,4-difluorophenyl)methyl]-N-(1-methylpiperidin-4-yl)carbamate]"
6,9.3,"COc1ccc(COC(=O)N(Cc2ccc(F)cc2F)C2CCN(C)CC2)cc1 [Compound 15, (4-methoxyphenyl)methyl N-[(2,4-difluorophenyl)methyl]-N-(1-methylpiperidin-4-yl)carbamate]"
7,7.6,"COc1ccc(CSC(=O)N(Cc2ccc(F)cc2F)C2CCN(C)CC2)cc1 [Compound 16, N-[(2,4-difluorophenyl)methyl]-N-(1-methylpiperidin-4-yl){[(4-methoxyphenyl)methyl]sulfanyl}formamide]"
8,9.7,"CCOc1ccc(COC(=O)N(Cc2ccc(F)cc2F)C2CCN(C)CC2)cc1 [Compound 25, 4-ethoxybenzyl (2,4-difluorobenzyl)(1-methylpiperidin-4-yl)carbamate]"
9,9.3,"C=CCOc1ccc(COC(=O)N(Cc2ccc(F)cc2F)C2CCN(C)CC2)cc1 [Compound 26, 4-(allyloxy)benzyl (2,4-difluorobenzyl)(1-methylpiperidin-4-yl)carbamate]"
10,10.2,"CN1CCC(N(Cc2ccc(F)cc2F)C(=O)OCc2ccc(OCC(C)(C)O)cc2)CC1 [Compound 29, 4-(2-hydroxy-2-methylpropoxy)benzyl (2,4-difluorobenzyl)(1-methylpiperidin-4-yl)carbamate]"
11,10.5,"CN1CCC(N(Cc2ccc(F)cc2F)C(=O)OCc2ccc(OC3CC3)cc2)CC1 [Compound 30, 4-cyclopropoxybenzyl (2,4-difluorobenzyl)(1-methylpiperidin-4-yl)carbamate]"
